Source: patent US10703779B2, “Oxadiazole cyclic peptides” (THE GOVERNING COUNCIL OF THE UNIVERSITY OF TORONTO, priority 2015, dated 2020)
Where “and” joins values, the source holds several entries; their conditions need not be identical. Equal entries are not always repeated. Where two headings read alike, the source gives them in different places.

Experiments:
[1] = multicomponent bond
[2] = passive artificial membrane permeability (PAMPA) assay; type: in vitro ADME; details: FIG. 10, oxadiazole-containing macrocycles (entries 1-7) compared with homodetic counterparts (entries 8-12)
Source text: Passive membrane permeability is an important property for the development of new therapeutics. […] Using this analysis method a −log Pe value <6.0 is indicitive of a passively membrane permeable compound, while a −log Pe>6.0 is indicative of a poorly permeable or non-permeable compound. […] (entry 12).

[3] = multicomponent bond; 18-membered ring; propionaldehyde/(N-isocyanimino)triphenylphosphorane; 25.0 °C
[4] = 18-membered ring, phenylacetaldehyde/(N-isocyanimino)triphenylphosphorane, DCE/MeCN 1:1, 25.0 mM, 50.0 °C, 2 steps
[5] = 15-membered ring, propionaldehyde/(N-isocyanimino)triphenylphosphorane, DCE/MeCN 1:1, 25.0 mM, 50.0 °C
[6] = 18-membered ring, propionaldehyde/(N-isocyanimino)triphenylphosphorane, DCE/MeCN 1:1, 25.0 mM, 50.0 °C, 2 steps
[7] = 21-membered ring, propionaldehyde/(N-isocyanimino)triphenylphosphorane, DCE/MeCN 1:1, 25.0 mM, 50.0 °C, 2 steps
[8] = 18-membered ring, propionaldehyde/(N-isocyanimino)triphenylphosphorane, DCE/MeCN 1:1, 25.0 mM, 50.0 °C
[9] = 18-membered ring, propionaldehyde/(N-isocyanimino)triphenylphosphorane, DCE/MeCN 1:1, 20.0 mM, 50.0 °C
[10] = 21-membered ring, propionaldehyde/(N-isocyanimino)triphenylphosphorane, DCE/MeCN 1:1, 25.0 mM, 50.0 °C

## PSLYG
[1]; [4]
  ring closure, isolated yield: 22%

## AGFA
[1]; 15-membered ring
  ring closure, isolated yield: 32%
[1]; [5]
  ring closure, isolated yield: 24%

## APLGS
[1]; [6]
  ring closure, isolated yield: 70%

## PSWAG
[1]; [4]
  ring closure, isolated yield: 26%

## cyclo(PFLLFA)
[2]
  passive membrane permeability (result in words): single exception

## PASWKG
[1]; [7]
  ring closure, isolated yield: 7%

## GPLGA
[1]; 18-membered ring
  ring closure, isolated yield: 13% and 25%
[1]; [8]
  ring closure, isolated yield: 20%

## APLGA
[1]; [8]
  ring closure, isolated yield: 15%

## PALAF
[1]; [9]
  ring closure, isolated yield: 20%

## PWASG
[1]; [6]
  ring closure, isolated yield: 28%

## PDAWG
[1]; [6]
  ring closure, isolated yield: 22%

## PDAWYG
[1]; [7]
  ring closure, isolated yield: 28%

## PAFA
[1]; [5]
  ring closure, isolated yield: 23%

## PFLLF
[1]; 18-membered ring, propionaldehyde/(N-isocyanimino)triphenylphosphorane, DCE/MeCN 1:1, 16.7 mM, 50.0 °C
  ring closure, isolated yield: 25%

## PSarLGFA
[1]; [10]
  ring closure, isolated yield: 42%

## ALFA
[1]; [5]
  ring closure, isolated yield: 20%

## PSarLGF
[1]; 18-membered ring, α-MIDA-borylaldehyde/(N-isocyanimino)triphenylphosphorane, DCE/MeCN 1:1, 25.0 mM, 50.0 °C
  ring closure, isolated yield: 28%

## PALGF
[1]; [9]
  ring closure, isolated yield: 25%

## PFLDA
[1]; 18-membered ring, acetone/(N-isocyanimino)triphenylphosphorane, DCE/MeCN 1:1 + acetone 30% v/v, 25.0 mM, 50.0 °C, 2 steps
  ring closure, isolated yield: 10%

## APLGK
[1]; [6]
  ring closure, isolated yield: 60%

## PGLGFA
[1]; [10]
  ring closure, isolated yield: 41%

## PGLAF
[1]; [9]
  ring closure, isolated yield: 23%

## PGLGF
[3]
  ring closure, conversion: 100%
[1]; 18-membered ring
  ring closure, isolated yield: 32%
[1]; 18-membered ring, phenylacetaldehyde/(N-isocyanimino)triphenylphosphorane, DCE/MeCN 1:1, 25.0 mM, 50.0 °C
  ring closure, isolated yield: 29%
[1]; 18-membered ring, propionaldehyde/(N-isocyanimino)triphenylphosphorane, DCE/MeCN 1:1, 50.0 mM, 25.0 °C
  ring closure, isolated yield: 68%

## PLDFA
[1]; [6]
  ring closure, isolated yield: 52%

## PGRGDWA
[1]; 24-membered ring, propionaldehyde/(N-isocyanimino)triphenylphosphorane, DCE/MeCN 1:1, 25.0 mM, 50.0 °C, 2 steps
  ring closure, isolated yield: 22%

## PFDLA
[1]; [6]
  ring closure, isolated yield: 45%

## PRGDA
[1]; [6]
  ring closure, isolated yield: 70%

## PSLYA
[1]; [6]
  ring closure, isolated yield: 24%
